Patent publication EP0445948A2, “Prostaglandins for inhibiting cartilage damage” (G.D. Searle & Co., priority 1990, dated 1991)

Tests used:
Type in all cases: cell-based
[1] = tested on: IL1-treated cartilage; experiment: Pig articular cartilage organ culture: retention of GAG (methylene blue dye technique)
Experimental: (§1) A standard organ culture method was followed. Pieces of articular cartilage (4x1x1 mm) are cultured in DMEM and 5% fetal calf serum in an atmosphere of 5% CO₂ at 30°C. The culture medium was renewed every two days in an attempt to maintain the level of the compound undergoing evaluation. Integrity of the cartilage was determined by the retention of GAG using methylene blue dye technique, results were expressed as percentage remaining in the tissue at the end of the experiment. The synthetic activity of the chondrocytes was measured by the incorporation of^ 35SO₄ into GAG. In some of the evaluations incorporation of 3H-leucine into protein was measured as an index of cell viability.
(§2) Human recombinant IL1 alpha at a concentration of 1 ng/ml (nanograms/milliliter). At this concentration it was responsible for 68% loss in GAG content over the 8 day period whereas the control with either misoprostol vehicle or misoprostol at 200 ng/ml only lost between 4 and 7%. The cartilage was incubated in the presence of IL1 and misoprostol at 50, 100 and 200 ng/ml. […] At 100 ng/ml the GAG loss is reduced to 34 percent.

[2] = tested on: IL1-treated cartilage; experiment: Pig articular cartilage organ culture: incorporation of 35SO4 into GAG (synthetic activity of chondrocytes); conditions: (SEM)
Experimental: as §1, §2

[3] = tested on: articular cartilage; experiment: Pig articular cartilage organ culture: incorporation of 3H-leucine into protein (index of cell viability); conditions: 0IL1 + Miso. 200ng/ml; (SEM)
Experimental: as §1, §2

[4] = tested on: human articular cartilage; experiment: Effect of misoprostol on IL1-induced inhibition of GAG synthesis (35SO4 incorporation after CPC precipitation); conditions: for 35SO4 uptake into GAG: 4 days, (SEM)
Experimental: The effect of misoprostol on the action of IL1 on human articular cartilage. This experiment was undertaken to determine the action of misoprostol on IL1 action on cartilage. A total of 160 replicates were performed. The study investigated the inhibition of synthesis of GAG by human articular cartilage over the IL1 concentration range 0.01 - 1 ng/ml. Misoprostol was investigated in the range of 0.1 to 100 ng/ml.
Cartilage from a person was used in this experiment. The experimental period was kept to 4 days with the medium being changed every 24 hours. The tissue was pulsed at 4 days with 5 µCi/ml ³⁵SO₄ in the conventional manner and its incorporation in GAG measured after CPC precipitation.

`CCCCC(C)(O)C/C=C/[C@H]1[C@H](O)CC(=O)[C@@H]1CCCCCCC(=O)OC` (mixture of isomers) [misoprostol, (+/-) methyl 11α,16-dihydroxy-16-methyl-9-oxoprost-13E-en-1-oate] was tested, and the “% Retention of GAG in tissue” value ([1]; 0IL1 + Miso. 200ng/ml, 8 day culture, (SEM)) was 95.6 (1.9) %, the GAG loss ([1]; IL1 1 ng/ml + misoprostol 100 ng/ml, 8 days) was 34% and the “inhibition of the IL1 effect (GAG loss)” value ([1]; IL1 + misoprostol at 50, 100 and 200 ng/ml) was “highly significant inhibition”. For the same compound, the “direct effect on intact cartilage” value ([1]; misoprostol without IL1) was “no direct affect”, the “Uptake of 35 SO4 into GAG” value ([2]; 0IL1 + Miso. 200ng/ml) was 29.6 (1.2) cpm/mg x 10^3 and the “Uptake of 35 SO4 into GAG” value ([2]; IL1 + Miso. 200ng/ml) was 6.3 (0.8) cpm/mg x 10^3. For the same compound, the “Uptake of 3H Leucine” value [3] was 70.9 (4.8) cpm/mg, the “protection against IL1-induced inhibition of GAG synthesis” value ([4]; 0.01 ng/ml IL1 (50% inhibition level), misoprostol at 10 ng/ml and at 100 ng/ml) was “significant protection” and the “protection against the action of 0.01 ng/ml hrIL1α” value ([4]; 0.01 ng/ml hrIL1α, misoprostol 100 ng/ml) was “complete protection”. The “protection against IL1-induced inhibition of GAG synthesis” value ([4]; 0.1 ng/ml IL1, misoprostol 100 ng/ml) was “modest protective activity”, the “protection against IL1-induced inhibition of GAG synthesis” value ([4]; 0.1 ng/ml IL1, misoprostol below 100 ng/ml) was “ineffective” and the “35SO4 uptake into GAG” value ([4]; IL1 conc. 0.01 ng/ml, Misoprostol 0.1 ng/ml) was 3086 (306) cpm/mg. For the same compound, the “35SO4 uptake into GAG” value ([4]; IL1 conc. 0.01 ng/ml, Misoprostol 1.0 ng/ml) was 2919 (244) cpm/mg, the “35SO4 uptake into GAG” value ([4]; IL1 conc. 0.1 ng/ml, Misoprostol 0.1 ng/ml) was 1113 (119) cpm/mg and the “35SO4 uptake into GAG” value ([4]; IL1 conc. 0.1 ng/ml, Misoprostol 1.0 ng/ml) was 1062 (71) cpm/mg. The “35SO4 uptake into GAG” value ([4]; IL1 conc. 0.1 ng/ml, Misoprostol 10.0 ng/ml) was 1102 (165) cpm/mg, the “35SO4 uptake into GAG” value ([4]; IL1 conc. 1.0 ng/ml, Misoprostol 0.1 ng/ml) was 183 (23) cpm/mg and the “35SO4 uptake into GAG” value ([4]; IL1 conc. 1.0 ng/ml, Misoprostol 1.0 ng/ml) was 171 (14) cpm/mg. The “35SO4 uptake into GAG” value ([4]; IL1 conc. 1.0 ng/ml, Misoprostol 10.0 ng/ml) was 219 (28) cpm/mg and the “35SO4 uptake into GAG” value ([4]; IL1 conc. 1.0 ng/ml, Misoprostol 100.0 ng/ml) was 193 (26) cpm/mg.
